{"source": "patent US20120029418A1", "about": "“COMPOSITION AND METHOD FOR PHOTODYNAMIC DISINFECTION” (Advanced Photodynamic Technologies, Inc., priority 2010, published 2012)", "key": {"[1]": {"test_system": "polymicrobial biofilms containing MRPA and MRSA", "assay": "Example I: photodynamic disinfection of polymicrobial biofilm discs", "format": "cell-based", "protocol": "(§1) An in vitro study was conducted on polymicrobial biofilms containing MRPA and MRSA using the following compositions: (i) compositions each comprising EDTA at one of the following concentrations: 0.5 mM (0.014612% w/v), 0.75 mM, 1.0 mM and 1.25 mM; (ii) composition comprising of methylene blue at a concentration of 0.05% w/v; (iii) compositions each comprising methylene blue at a concentration of 0.05% w/v and EDTA at one of the following concentrations: 0.5 mM, 0.75 mM, 1.0 mM and 1.25 mM. Clinical isolates of MRPA and MRSA were used in this study. Overnight tryptic soy broth (Remel, Lenexa, Kans.) cultures were centrifuged for 15 minutes at 5,000 RPM. The supernatants were removed and the cells washed and resuspended in 1× phosphate buffered saline (PBS) by alternate rounds of centrifugation for 2 minutes at 12.1×g and resuspension. Resulting bacterial suspensions were diluted with PBS to obtain approximately 1.5×10^5 cells/mL of each bacterium measured using a CrystalSpec nephlometer (BD Diagnostic Systems, Sparks, Md.). The suspensions were then combined. […]\n(§2) Thereafter, all of the biofilm discs were each placed in a sterile 50 mL centrifuge tube with 1 mL of PBS, vortexed vigorously for one minute. […] The colonies were counted by a Protos automated counter (Synoptics, Frederick, Md.) to determine the total number of viable bacteria and expressed as colony forming units (CFU). […]"}, "planktonic MRPA and MRSA": {"test_system": "planktonic MRPA and MRSA", "assay": "Example IV: planktonic MRPA and MRSA study", "format": "cell-based", "settings": "for planktonic MRPA and MRSA reduction compared to the control: methylene blue 0.005% w/v, no EDTA", "protocol": "An in vitro study was conducted on planktonic MRPA and MRSA using the following compositions. (i) compositions each comprising EDTA at One of the following concentrations: 0.005 mM, 0.01 mM, 0.025 mM, 0:05 mM (0.0014612% w/v), 0.075 mM (0.0021918% w/v), 0.1 mM, 0.175 mM, 0.25 mM and 0.4 mM (0.0116896% w/v); (ii) composition comprising of methylene blue at a concentration of 0.005% w/v; and (iii) compositions each comprising of methylene blue at a concentration of 0.005% w/v with EDTA at one of the following concentrations: 0.005 mM, 0.01 mM, 0:025 mM, 0.05 mM, 0.075 mM, 0.1 mM 0.175 mM, 0.25 mM and 0.4 mM. The planktonic MRPA and MRSA samples were prepared in the same fashion as described in Example 1 in order to obtain approximately 1.5×10^8 cells/mL of MRPA and approximately 1.5×10^8 cells/mL of MRSA which were then combined.\nEach of the compositions discussed above was prepared and then mixed with the combined bacterial solution of MRPA and MRSA and incubated for 30 seconds (“treated samples”). Thereafter, test tubes were prepared each containing 50 μl of one of the treated samples. Some of these test tubes were kept in dark incubation for 400 seconds while the remaining test tubes were exposed to 664 nm light using a non-laser light at a power density of 100 mW/cm^2 and a light energy dose of 10 J/cm^2.\nThereafter, a cotton-tipped swab (Puritan, Guilford, Me.) was dipped into the suspension contained within each test tube, placed in 1 mL of PBS With the stick broken off, and then vortexed for 3-5 seconds (“test samples”). […] The colonies were counted by a Protos automated counter (Synoptics, Frederick, Md.) to determine the number of viable bacteria and expressed as colony forming units (CFU). […] Counts for all experimental and control conditions were averaged and expressed as CFU/ml.\nThe planktonic MRPA and MRSA reduction rate was calculated as surviving CFU/ml in experimental conditions vs. the control (i.e., test samples that received no treatment) expressed as a log10 reduction from control and shown in FIGS. 6-7."}, "[2]": {"settings": "cited from earlier work"}, "[3]": {"test_system": "polymicrobial biofilms containing MRPA and MRSA", "assay": "Example II: repeat polymicrobial biofilm study, protocol of Example I", "format": "cell-based", "settings": "FIG. 2; methylene blue 0.05% w/v, no EDTA", "protocol": "as §1, §2"}, "[4]": {"test_system": "Pseudomonas aeruginosa ATCC # 9027 in polymicrobial biofilms", "assay": "Example III: polymicrobial biofilm study, Pseudomonas aeruginosa count", "format": "cell-based", "settings": "no EDTA, 669 nm, 72 J/cm^2", "protocol": "An in vitro study was conducted on polymicrobial biofilms containing MRSA and Pseudomonas aeruginosa. Stock cultures of MRSA ATCC # 33592 and Pseudomonas aeruginosa ATCC # 9027 were grown aerobically overnight on tryptic soy agar, harvested individually, and suspended in PBS solution with MRSA at a concentration of ˜2×10^8 CFU/ml and Pseudomonas aeruginosa at a concentration of ˜3×10^6 CFU/ml. Cell densities were measured as a function of absorbance at 420 nm using a Genesys 10 spectrophotometer (Thermo Scientific, Pittsburgh, Pa.). Pseudomonas aeruginosa inocula were then serial diluted in PBS to a concentration of ˜3×10^4 CFU/ml. The two suspended inocula (MRSA and Pseudomonas aeruginosa) were mixed at a ratio of 1:1 and then further diluted 1:40 into tryptic soy broth to achieve the biofilm inoculum of having a MRSA final concentration of ˜2.5×10^6 CFU/ml and Pseudomonas aeruginosa at a final concentration of ˜3.75×10^3 CFU/ml\nThe biofilm inoculum, prepared as described above, was then pipetted onto 8 mm diameter sterile silicone discs placed inside a 24-well culture plate with 600 μl of the biofilm inoculum per well. The plates were then allowed to shake for 24 hours at 125 rotations per minute using an Innova 200 platform gyrorotary shaker (New Brunswick Scientific Co, Edison N.J.) at 35° C. After 24 hours, all residual liquid from each well was removed and 600 μl of sterile tryptic soy broth was added to each well. […]\nImmediately following illumination, the glass cover slip was removed carefully using sterile forceps and biofilm disc surfaces were swabbed using a calcium alginate swab following a reproducible “X” pattern. […] Colony counts were counted separately for each bacterial species (i.e., MRSA and Pseudomonas aeruginosa) providing differentiation of reduction for each of the bacterial species. Counts for all experimental and control conditions were averaged and expressed as CFU/ml. The bacteria reduction rate was calculated as surviving CFU/ml in experimental conditions vs. the control expressed as a log10 reduction from the control. […]"}}, "note": "Where two headings read alike, the source gives them in different places."}
{"smiles": "O=C(O)CN(CCN(CC(=O)O)CC(=O)O)CC(=O)O", "note": "[EDTA, ethylenediaminetetraacetic acid]", "values": [{"measurement": "biofilm bacterial count reduction", "setting": "[1]; EDTA alone at 0.5 mM, 0.75 mM, 1.0 mM and 1.25 mM", "value": "did not result in any statistically significant biofilm bacterial count reduction"}, {"measurement": "bacterial count reduction", "setting": "planktonic MRPA and MRSA; EDTA alone at 0.005 mM to 0.4 mM, without light (dark incubation for 400 seconds)", "value": "did not result in any statistically significant bacterial count reduction"}]}
{"smiles": "CN(C)c1ccc2nc3ccc(=[N+](C)C)cc-3sc2c1", "note": "[methylene blue]", "values": [{"measurement": "yield of the singlet oxygen generation", "setting": "[2]; pH 5", "value": 0.2}, {"measurement": "yield of the singlet oxygen generation", "setting": "[2]; pH 9", "value": 0.94}, {"measurement": "bacterial reduction compared to the control", "setting": "[1]; FIG. 1, methylene blue 0.05% w/v, no EDTA, 664 nm, 45 J/cm^2", "value": 2.5, "unit": "log10"}, {"measurement": "planktonic MRPA and MRSA reduction compared to the control", "setting": "planktonic MRPA and MRSA; FIG. 6, without any light (dark incubation 400 seconds)", "value": 2.4, "unit": "log10"}, {"measurement": "planktonic MRPA and MRSA reduction compared to the control", "setting": "planktonic MRPA and MRSA; FIG. 7, with light treatment (664 nm, 10 J/cm^2)", "value": 3.5, "unit": "log10"}, {"measurement": "bacterial reduction compared to the control", "setting": "[3]", "value": 3.4, "unit": "log10"}, {"measurement": "Pseudomonas aeruginosa reduction compared to the control", "setting": "[4]; FIG. 3, methylene blue 0.01% w/v", "value": 2.9, "unit": "log10"}, {"measurement": "Pseudomonas aeruginosa reduction compared to the control", "setting": "[4]; FIG. 4, methylene blue 0.03% w/v", "value": 2.9, "unit": "log10"}, {"measurement": "Pseudomonas aeruginosa reduction compared to the control", "setting": "[4]; FIG. 5, methylene blue 0.05% w/v", "value": 2.6, "unit": "log10"}]}
